Experimental data taken from patent US20190314345A1, “CALCINEURIN INHIBITOR AND NON-STEROIDAL ANTI-INFLAMMATORY DRUG TO REDUCE RISK OF POST-IMAGING PANCREATITIS” (UNIVERSITY OF PITTSBURGH - OF THE COMMONWEALTH SYSTEM OF …, priority 2016, published 2019).

What was measured:
pancreatic NF-κB = test: Imaging pancreatic NF-κB bioluminescence in vivo; set-up: species or system mouse; settings: FK506 treatment
Method: An AAV6-NF-κB-luciferase reporter was constructed, expanded in HEK293 cells, and purified as previously described^18-20, 39. A volume of 100 μl of virus (10^12 GCP/ml) was infused into the pancreaticobiliary duct at a rate of 10 μl/min using the same technique of RC infusion described above and recently published^21, 39. After a 5-week recovery from the surgery, mice underwent PEP induction with or without FK506 treatment. At varying time points after the surgery, ranging from 2 to 36 hr, bioluminescence signals were obtained by first giving a subcutaneous injection of luciferin (150 μg/g body weight) in the scruff of the neck 15 min before the start of imaging. The mice were briefly anesthetized with isoflurane and placed in the supine position in a bioluminescent imaging chamber (IVIS spectrum imager; Perkin Elmer, Waltham, Mass.) for 3-10 min. Average pixel intensity was measured from a pancreatic region of interest (in the upper abdomen). Raw time points from each mouse were normalized to its individual baseline intensity at time zero.

[1] = system: IL-6, GADD45B, IL-1β expression; test: Real-time PCR gene expression from the pancreatic head; format: in vivo, mouse; settings: RC exposure, with or without FK506 pretreatment
Method: Total RNA from the pancreatic head was obtained by homogenizing 40 mg of tissue in 2 ml of TRIzol reagent (Life Technologies; Grand Island N.Y.) at 4° C. and immediately flash frozen in liquid nitrogen. Samples were thawed on ice and centrifuged at 12,000×g for 10 min at 4° C. The supernatant was diluted with 200 μl of chloroform and centrifuged at 12,000×g for 15 min at 4° C. The upper aqueous phase was treated with 0.5 ml of isopropanol and centrifuged at 10,000×g for 10 min at 4° C. The pellet was resuspended with 150 μl of 75% ethanol and centrifuged at 7500×g for 5 min at 4° C. The pellet was air-dried and dissolved in 100 μl of nuclease-free water. Total RNA samples were used to generate cDNA using the iScript Advanced cDNA synthesis Kit (Bio Rad; Hercules, Calif.).
Quantitative real-time PCR (rtPCR) was performed to determine the relative expression of the cytokines IL-6 and IL-1β as well as the cell growth arrest and DNA-damage inducible gene GADD45B. The primer pairs for each as well as a GAPDH control were obtained as part of the PrimePCR-PreAMP SYBR Green Assay (Bio Rad; unique assay ID # qMmuCEP0054186, qMmuCID0005641, qMmuCEP0039581). rtPCR reactions were carried out in 20 μl volume reactions using the SsoAdvanced Universal Supermix SYBR Green system (Bio Rad). The reactions contained 1× SsoAdvanced Universal SYBR Green Supermix, 300 nM forward Primer, 300 nM reverse primer and 100 ng cDNA. rtPCR conditions were 95° C. for 10 sec and 60° C. for 30 sec for 35 cycles on a Bio Rad CFX96 Touch thermocycler (Bio Rad). Results for the expression of mRNA were normalized to expression of […] and are represented relative to expression levels for each of the control groups.

PEP model in mice [2] = test: PEP model with intraductal delivery of Cn inhibitors with the radiocontrast; format: in vivo, mouse; settings: CsA 10 μM
Method: PEP was induced as previously described^73. Briefly, 100 μl iohexol (Omnipaque, GE Healthcare, Princeton, N.J.) was infused retrograde into the biliopancreatic duct at a rate of 20 μl/min for 5 min. Mice from the ductal manipulation (DM) group received retrograde infusion of 50 μl normal saline into pancreatic ductal at a lower rate of 10 μl/min for 5 min. Mice were euthanized 24 hr after PEP induction by CO2 inhalation and cervical dislocation. Mice from the sham group received laparotomy only. Blood was collected by retro-orbital bleed 6 h after PEP induction. […] Serum amylase was measured using a Phadebas Kit (Amersham Pharmacia, Rochester, N.Y.) according to the manufacturer's instruction. The pancreas, duodenum, and spleen were placed en bloc in a cassette in order to maintain anatomical orientation (FIG. 18A). The tissues were fixed in 4% paraformaldehyde at room temperature for 24 hr. Paraffin-embedded sections were stained with hematoxylin and eosin (HE). Ten systematically selected fields at 200× magnification were graded in a blinded fashion from the head of the pancreas, which was identified by its juxtaposition to the duodenum. […] Labelled areas within the parenchyma were marked as edema, and their surface area was calculated as a percentage of the total parenchymal area.

PEP model in mice [3] = settings: in vivo model of PEP in mice; earlier work; cited from earlier work

In the case of `C=CC[C@@H]1/C=C(\C)C[C@H](C)C[C@H](OC)[C@H]2O[C@@](O)(C(=O)C(=O)N3CCCC[C@H]3C(=O)O[C@H](/C(C)=C/[C@@H]3CC[C@@H](O)[C@H](OC)C3)[C@H](C)[C@@H](O)CC1=O)[C@H](C)C[C@@H]2OC` [FK506, tacrolimus], the “effect on RC-induced pancreatic NF-κB” value (pancreatic NF-κB) is reported as “markedly blunted”, the “gene expression of GADD45B” value [1] is reported as “significant reduction” and the “gene expression of IL-1β” value [1] is reported as “trend toward reduction”. For the same compound, the “gene expression of IL-6” value [1] was “significant reduction”, the “serum amylase elevations seen with PEP” value (PEP model in mice [2]; 6 hr after infusion, intraductal FK506 1 μM) was “reduced” and the “reduction of severity of the moderate model of PEP” value (PEP model in mice [2]; intraductal with radiocontrast, FK506 1 μM, down to sham levels) was 61%. The “effect of systemic frequent prophylactic dosing on PEP” value (PEP model in mice [3]) was “prevented PEP”.
